Measurements as given in patent US5061711A, “Method of curing liver diseases by using pyrrolo quinoline quinone triesters and novel pyrrolo quinoline quinone triesters” (Mitsubishi Gas Chemical Company, Inc., priority 1989, dated 1991).
Like-named read-outs stand apart in the source and are kept apart here.

Key:
[1] = bovine, not told, 960 min
Experimental: Each compound dissolved in 10 mM HEPES buffer (containing 1%DMSO in the case of PQQ triesters) was put in an apparatus for measurement of membrane permeation constant and left to stand for 16 hours at 35 ° C. and then amount of the compound which migrated was measured by ultraviolet absorption (243 nm for PQQ 2Na and 255 nm for PQQ triester) to obtain membrane permeation constant.

[2] = test system: liver diseases; details: cited from earlier work
[3] = test system: kidney; details: Watanabe et al 1989; cited from earlier work
[4] = test system: mice; experiment: Kidney toxicity determined by urine test; assay type: in vivo, mouse; details: mouse, in vivo, ip
Experimental: (2) Kidney toxicity determined by urine test
PQQ.2Na, PQQ trimethyl ester and PQQ triallyl ester were intraperitoneally administered to mice and they were bred in the same manner as in the above acute toxicity test. The doses per kg of body weight of mouse were 20, 40 and 80 mg for PQQ.2Na and 20, 40, 80, 160 and 200 mg for PQQ triesters. Urine was collected every day and glucose concentration was examined using clinical examination reagent (trademark: […] II manufactured by Miles.Sankyo Co.).

[5] = test system: male mice SPF-ICR; experiment: Acute toxicity test; details: mouse, in vivo, ip
Experimental: To male mice SPF-ICR five weeks old (supplied by Japan Charles River Co.) were intraperitoneally administered PQQ.2Na, PQQ trimethyl ester and PQQ triallyl ester at dosages of 40, 80, 160 and 200 mg per kg of body weight of mouse, respectively and they were bred for 14 days at 25° C. One group consisted of 8 mice. For administration, PQQ.2Na was dissolved in physiological saline and PQQ trimethyl ester and PQQ triallyl ester were suspended in 1%Tween 80-containing physiological saline, respectively.

[6] = test system: mice; experiment: Kidney toxicity determined by blood examination; assay type: in vivo, mouse; details: mouse, in vivo, ip
Experimental: (3) Kidney toxicity determined by blood examination:
After lapse of one day from the administration, the mice were fasted (only water was given) and then after 18 hours, blood was collected and serum was obtained therefrom. Glucose, urea nitrogen and creatinine in the serum were examined by clinical examination reagent (trademark: FUJI DRYCHEMSLIDE manufactured by Fuji Photo Film Co., Ltd.). The results are shown by average value of eight mice in Table 3.

[7] = Solubility; assay type: physicochemical

For `CCOC(=O)c1cc(C(=O)OCC)c2c(n1)C(=O)C(=O)c1cc(C(=O)OCC)[nH]c1-2` [PQQ triethyl ester], the Membrane permeation constant [1] was 1.22 ± 0.37 10^-7 cm^2 · sec^-1 and the “membrane permeation constant relative to that of PQQ.2Na” value [1] was “about 2 times”.

For `O=C(O)c1cc(C(=O)O)c2c(n1)C(=O)C(=O)c1cc(C(=O)O)[nH]c1-2` [PQQ, pyrrolo quinoline quinone], the “inhibition of liver diseases” value ([2]; administered intraperitoneally, Japanese Patent Kokai No. 63-192717) is listed as “inhibit liver diseases”, the “inhibition of liver diseases” value ([2]; orally administered, Watanabe et al 1988) is listed as “not observed” and the kidney toxicity [3] is listed as “has kidney toxicity”. For the same molecule, the “kidney toxicity by urine test (in words)” value [4] was “showed kidney toxicity”.

For `O=C(O)c1cc(C(=O)O)c2c(n1)C(=O)C(=O)c1cc(C(=O)O)[nH]c1-2` [PQQ.2Na, reference compound], the mice died ([5]; 40 mg/kg) was “No mice died”, the mice died ([5]; 80 mg/kg) was “five mice died” and the mice died ([5]; 160 mg/kg) was “eight mice all died”. For the same molecule, the mice died ([5]; 200 mg/kg) was “eight mice all died”, the “creatinine in serum (in words)” value [6] was “much increase” and the “glucose in serum (in words)” value [6] was “Sharp reduction”. For the same molecule, the “kidney toxicity (in words)” value [6] was “kidney toxicity was observed”, the “urea nitrogen in serum (in words)” value [6] was “much increase” and the Creatinine in serum ([6]; 20 mg/kg) was 0.5 mg/dL. For the same molecule, the Glucose in serum ([6]; 20 mg/kg) was 70 mg/dL, the “Urea nitrogen in serum” value ([6]; 20 mg/kg) was 21 mg/dL and the Creatinine in serum ([6]; 40 mg/kg) was 2.3 mg/dL. The Glucose in serum ([6]; 40 mg/kg) was 60 mg/dL, the “Urea nitrogen in serum” value ([6]; 40 mg/kg) was 110 mg/dL and the Creatinine in serum ([6]; 80 mg/kg) was 3.4 mg/dL. The Glucose in serum ([6]; 80 mg/kg) was 57 mg/dL, the “Urea nitrogen in serum” value ([6]; 80 mg/kg) was 130 mg/dL and the Creatinine in serum ([6]; 160 mg/kg) was 4.2 mg/dL. For the same molecule, the Glucose in serum ([6]; 160 mg/kg) was 35 mg/dL, the “Urea nitrogen in serum” value ([6]; 160 mg/kg) was 139 mg/dL and the Membrane permeation constant [1] was 0.68 ± 0.36 10^-7 cm^2 · sec^-1. The “glucose in urine (in words)” value [4] was “glucose was detected”, the glucose in urine ([4]; 20 mg/kg) was “-” and the glucose in urine ([4]; 40 mg/kg) was “-”. For the same molecule, the glucose in urine ([4]; 80 mg/kg) was “-”.

In the case of `O=C(OCc1ccccc1)c1cc(C(=O)OCc2ccccc2)c2c(n1)C(=O)C(=O)c1cc(C(=O)OCc3ccccc3)[nH]c1-2` [PQQ tribenzyl ester], the Solubility ([7]; acetone) was “Very soluble”, the Solubility ([7]; chloroform) was “Very soluble” and the Solubility ([7]; ethanol) was “Very soluble”. For the same molecule, the Solubility ([7]; methanol) was “Very soluble” and the Solubility ([7]; water) was “hardly soluble”.
